Results as given in PMC7371993, “Targeting of the C-Type Lectin Receptor Langerin Using Bifunctional Mannosylated Antigens” (Frontiers in Cell and Developmental Biology, 2020).

target: T1, Langerin S-ECD (Homo sapiens, UniProt Q9UJ71); test: SPR direct interaction assay on oriented Langerin S-ECD surface; assay type: binding; details: Langerin S-ECD captured via StreptagII on CM3 chip, flow 30 μL/min, same running buffer pH 8, 1:1 fit, apparent Kd, read-out: Kdapp
T1 construct: The ECD of Langerin (residues 68–328) was overexpressed and purified as previously described; made in house
T1 sequence (Q9UJ71 68-328): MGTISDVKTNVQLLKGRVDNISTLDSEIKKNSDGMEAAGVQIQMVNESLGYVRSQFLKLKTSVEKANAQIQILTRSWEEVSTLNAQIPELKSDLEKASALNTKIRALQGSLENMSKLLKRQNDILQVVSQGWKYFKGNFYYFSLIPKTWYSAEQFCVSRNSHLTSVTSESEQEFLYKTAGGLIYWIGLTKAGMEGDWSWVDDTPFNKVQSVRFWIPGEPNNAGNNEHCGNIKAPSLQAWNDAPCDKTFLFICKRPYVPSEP
Method: To determine the apparent Kd value, direct interaction experiments were executed on a T200 Biacore with a CM3 series S sensor chip. The Langerin ECD in this assay was functionalized with a […] on the N-terminus (Langerin S-ECD), for oriented capture on the sensor chip surface. The flow cells were functionalized with streptactin protein after EDC/NHS activation. Control flow cell 1 was functionalized with BSA, whereas another flow cell was functionalized with 100 μg/mL Langerin S-ECD via tag-specific capture and simultaneous amine coupling as previously described ([Porkolab et al., 2020]). An approximate density of about 2.609 RU was achieved on the chip surface. The compounds were injected in increasing concentrations with a flow rate of 30 μL/min in the previously mentioned running buffer. The data were analyzed in Biacore BIAevaluation software for direct interaction 1:1 calculation to determine the apparent Kd value.

Compound | Kd
CC(=O)N[C@@H](CCCCn1cc(CO[C@H]2O[C@H](CO[C@H]3O[C@H](CO)[C@@H](O)[C@H](O)[C@@H]3O)[C@@H](O)[C@H](O[C@H]3O[C@H](CO)[C@@H](O)[C@H](O)[C@@H]3O)[C@@H]2O)nn1)C(=O)NCC(=O)N[C@@H](CCCCn1cc(CO[C@H]2O[C@H](CO[C@H]3O[C@H](CO)[C@@H](O)[C@H](O)[C@@H]3O)[C@@H](O)[C@H](O[C@H]3O[C@H](CO)[C@@H](O)[C@H](O)[C@@H]3O)[C@@H]2O)nn1)C(=O)NCC(=O)N[C@@H](CCCCN)C(N)=O [Ligand E2] | 278 µM
CC(=O)N[C@@H](CCCCn1cc(CO[C@H]2O[C@H](CO[C@H]3O[C@H](CO)[C@@H](O)[C@H](O)[C@@H]3O)[C@@H](O)[C@H](O)[C@@H]2O)nn1)C(=O)NCC(=O)N[C@@H](CCCCn1cc(CO[C@H]2O[C@H](CO[C@H]3O[C@H](CO)[C@@H](O)[C@H](O)[C@@H]3O)[C@@H](O)[C@H](O)[C@@H]2O)nn1)C(=O)NCC(=O)N[C@@H](CCCCN)C(N)=O [Ligand D2] | 16 µM

target: T2, Langerin ECD (Homo sapiens, UniProt Q9UJ71); test: SPR competition (inhibition) assay with trimeric Langerin ECD; assay type: binding; details: Biacore T200, CM3 chip with BSA-Manα1-3[Manα1-6]Man, Langerin ECD 20 μM, 25 mM Tris-HCl pH 8, 150 mM NaCl, 4 mM CaCl2, 0.05% P20, four parameter fit
T2 construct: The ECD of Langerin (residues 68–328) was overexpressed and purified as previously described; made in house
T2 sequence (Q9UJ71 68-328): as above
Method: The ECD of Langerin (residues 68–328) was overexpressed and purified as previously described ([Thépaut et al., 2009]). The SPR competition experiments were performed on a Biacore T200 using a CM3 series S sensor chip. Control flow cell 1 was functionalized with bovine serum albumin (BSA), whereas flow cell 2 and 3 were treated with 60 μg/mL BSA-Man α1-3[Manα1-6]Man (Dextra) in 10 mM NaOAc pH4 (final densities 2.062 and 2.183 RU, respectively). All flow cells were blocked with ethanolamine. […] Langerin ECD (20 μM) was injected at 5 μL/min, with or without inhibitor at increasing concentrations. The data were analyzed in Biacore BIAevaluation software using four parameter equation, and the IC50 was determined.

Compound | IC50
CC(=O)N[C@@H](CCCCn1cc(CO[C@H]2O[C@H](CO)[C@@H](O)[C@H](O)[C@@H]2O[C@H]2O[C@H](CO)[C@@H](O)[C@H](O)[C@@H]2O)nn1)C(=O)NCC(=O)N[C@@H](CCCCn1cc(CO[C@H]2O[C@H](CO)[C@@H](O)[C@H](O)[C@@H]2O[C@H]2O[C@H](CO)[C@@H](O)[C@H](O)[C@@H]2O)nn1)C(=O)NCC(=O)N[C@@H](CCCCN)C(N)=O [Ligand B2] | 181 ± 4 µM
CC(=O)N[C@@H](CCCCn1cc(CO[C@H]2O[C@H](CO)[C@@H](O)[C@H](O[C@H]3O[C@H](CO)[C@@H](O)[C@H](O)[C@@H]3O)[C@@H]2O)nn1)C(=O)NCC(=O)N[C@@H](CCCCn1cc(CO[C@H]2O[C@H](CO)[C@@H](O)[C@H](O[C@H]3O[C@H](CO)[C@@H](O)[C@H](O)[C@@H]3O)[C@@H]2O)nn1)C(=O)NCC(=O)N[C@@H](CCCCN)C(N)=O [Ligand C2] | 1420 µM
CC(=O)N[C@@H](CCCCn1cc(CO[C@H]2O[C@H](CO)[C@@H](O)[C@H](O)[C@@H]2O)nn1)C(=O)NCC(=O)N[C@@H](CCCCn1cc(CO[C@H]2O[C@H](CO)[C@@H](O)[C@H](O)[C@@H]2O)nn1)C(=O)NCC(=O)N[C@@H](CCCCN)C(N)=O [Ligand A2] | 2420 ± 30 µM
CC(=O)N[C@@H](CCCCn1cc(CO[C@H]2O[C@H](CO)[C@@H](O)[C@H](O)[C@@H]2O[C@H]2O[C@H](CO)[C@@H](O)[C@H](O)[C@@H]2O)nn1)C(=O)NCC(=O)N[C@@H](CCCCN)C(N)=O [Ligand B1] | 4140 µM
